According to ChEMBL document CHEMBL4145565, “Prolyl Hydroxylase Inhibitors: A Breakthrough in the Therapy of Anemia Associated with Chronic Diseases” (J Med Chem, 2018):

What was measured:
[1] = organism: Homo sapiens; experiment: Selectivity ratio of IC50 for HIF-PHD2 (unknown origin) to IC50 for HIF-PHD1 (unknown origin)
[2] = target: T1, Egl nine homolog 1 (Homo sapiens, UniProt Q9GZT9); experiment: Inhibition of HIF-PHD2 (unknown origin) by fluorescence polarization assay
[3] = Inhibition of PHD (unknown origin) by FRET assay; set-up: species or system Homo sapiens
[4] = Half life in human at 1 to 2 mg/kg, po administered as two or three times weekly; assay type: ADME, organism-based; conditions: in vivo
[5] = organism: Homo sapiens; experiment: Antianemic activity in human assessed as increase in hemoglobin level; assay type: functional
[6] = test system: Homo sapiens; experiment: In vivo inhibition of PHD in human assessed as induction of EPO level in serum at 1 mg/kg, po administered as twice weekly measured at 4 to 10 hrs post dose; assay type: functional
[7] = test system: Homo sapiens; experiment: In vivo inhibition of PHD in human assessed as induction of EPO level in serum at 900 mg measured after 18 hrs; assay type: functional
[8] = Oral bioavailability in monkey; assay type: ADME, organism-based, Macaca mulatta; conditions: rhesus monkey, in vivo
[9] = Oral bioavailability in Wistar rat; assay type: ADME, organism-based; conditions: in vivo
[10] = Oral bioavailability in dog; assay type: ADME, organism-based, Canis lupus familiaris; conditions: in vivo
[11] = test system: Rattus norvegicus; experiment: In vivo inhibition of PHD in Wistar rat assessed as increase in packed cell volume at 1.25 mg/kg, po measured after 26 days relative to control; assay type: functional; set-up: scale not given: the % may be the effect or the level left
[12] = test system: Rattus norvegicus; experiment: In vivo inhibition of PHD in Wistar rat assessed as increase in packed cell volume at 5 mg/kg, po measured after 26 days relative to control; assay type: functional; set-up: scale not given: the % may be the effect or the level left
[13] = test system: Mus musculus; experiment: Cardioprotective activity in C57BL/6 mouse assessed as reduction in lactate dehydrogenase release to coronary effluent at 10 mg/kg measured at 4 hrs post dose relative to control; assay type: functional; set-up: scale not given: the % may be the effect or the level left
[14] = test system: Mus musculus; experiment: Cardioprotective activity in C57BL/6 mouse assessed as reduction in lactate dehydrogenase release to coronary effluent at 30 mg/kg measured at 4 hrs post dose relative to control; assay type: functional; set-up: scale not given: the % may be the effect or the level left
[15] = Inhibition of PHD (unknown origin); set-up: species or system Homo sapiens
[16] = Inhibition of PHD in rat H9C2 cells after 24 hrs by ELISA; assay type: cell-based
[17] = test system: Mus musculus; experiment: Cardioprotective activity in C57BL/6 mouse assessed as reduction in area of infract at 10 mg/kg measured at 4 hrs post dose relative to control; assay type: functional; set-up: scale not given: the % may be the effect or the level left
[18] = test system: Mus musculus; experiment: Cardioprotective activity in C57BL/6 mouse assessed as reduction in area of infract at 30 mg/kg measured at 4 hrs post dose relative to control; assay type: functional; set-up: scale not given: the % may be the effect or the level left
[19] = test system: Mus musculus; experiment: Cardioprotective activity in C57BL/6 mouse assessed as induction in VEGF mRNA levels at 60 mg/kg, po measured at 2 hrs post dose by qRT-PCR relative to control; assay type: functional
[20] = target: T1, Egl nine homolog 1; experiment: Inhibition of N-terminal truncated PHD2 (unknown origin) using biotin labelled DLDLEMLAPYIPMDDDFQL as substrate by AlphaScreen assay
[21] = target: T1, Egl nine homolog 1; experiment: Inhibition of FLAG- tagged full length HIF-PHD2 (unknown origin) expressed in baculovirus-infected Sf9 cells using biotin labelled DLDLEMLAPYIPMDDDFQL as substrate preincubated for 30 mins followed by substrate addition measured after 2 hrs by LANCE assay
[22] = target: T2, Prolyl hydroxylase EGLN3 (Homo sapiens, UniProt Q9H6Z9); experiment: Inhibition of His tagged MBP-PHD3 (1 to 230 residues) (unknown origin) expressed in Escherichia coli using Cy5-labelled HIF2alpha as substrate preincubated for 3 mins followed by substrate addition nmeasured after 30 mins by LANCE assay
[23] = organism: Homo sapiens; experiment: Inhibition of PHD (unknown origin) assessed as induction of EPO by cell based assay relative to control
[24] = organism: Homo sapiens; experiment: Selectivity ratio of IC50 for PHD3 (unknown origin) to IC50 for PHD2 (unknown origin)
[25] = target: Prolyl hydroxylase EGLN2 (Homo sapiens, UniProt Q96KS0); experiment: Inhibition of PHD1 (unknown origin)
[26] = test system: Mus musculus; experiment: In vivo inhibition of PHD in B6D2F1 mouse assessed as induction of EPO level at 60 mg/kg measured at 12 hrs post dose relative to control; assay type: functional
[27] = target: T2, Prolyl hydroxylase EGLN3; experiment: Inhibition of PHD3 (unknown origin)
[28] = test system: Homo sapiens; experiment: In vivo inhibition of PHD in human assessed as induction of EPO level in serum at 10 mg measured after 4 weeks; assay type: functional
[29] = target: T1, Egl nine homolog 1; experiment: Inhibition of human PHD2 expressed in 293FT cells using HIF-1 [alpha] as substrate after 20 mins by fluorescence polarization assay
[30] = organism: Homo sapiens; experiment: Inhibition of PHD in human Hep3B cells assessed as induction of EPO level by cell based assay relative to control
[31] = Inhibition of PHD in human A549 cells by luciferase reporter gene assay; assay type: cell-based

T2 sequence (Q9H6Z9 whole entry, the tested form may be a part): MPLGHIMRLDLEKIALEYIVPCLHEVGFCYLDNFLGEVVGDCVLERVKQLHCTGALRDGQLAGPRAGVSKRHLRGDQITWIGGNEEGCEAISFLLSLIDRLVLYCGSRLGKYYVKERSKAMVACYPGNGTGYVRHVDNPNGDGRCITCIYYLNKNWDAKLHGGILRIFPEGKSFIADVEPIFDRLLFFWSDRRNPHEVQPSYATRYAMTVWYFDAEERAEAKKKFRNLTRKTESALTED
T1 sequence (Q9GZT9 whole entry): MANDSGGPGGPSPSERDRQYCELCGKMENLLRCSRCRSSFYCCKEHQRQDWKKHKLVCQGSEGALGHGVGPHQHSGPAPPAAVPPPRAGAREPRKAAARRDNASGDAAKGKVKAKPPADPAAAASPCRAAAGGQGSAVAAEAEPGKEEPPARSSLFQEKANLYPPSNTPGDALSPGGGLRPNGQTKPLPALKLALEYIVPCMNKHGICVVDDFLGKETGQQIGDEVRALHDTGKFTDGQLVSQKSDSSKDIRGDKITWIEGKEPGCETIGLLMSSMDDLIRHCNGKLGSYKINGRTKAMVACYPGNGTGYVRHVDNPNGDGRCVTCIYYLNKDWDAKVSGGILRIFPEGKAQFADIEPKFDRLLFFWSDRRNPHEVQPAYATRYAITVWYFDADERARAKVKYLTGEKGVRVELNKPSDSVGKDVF
Sequence of Prolyl hydroxylase EGLN2 (Q96KS0 whole entry): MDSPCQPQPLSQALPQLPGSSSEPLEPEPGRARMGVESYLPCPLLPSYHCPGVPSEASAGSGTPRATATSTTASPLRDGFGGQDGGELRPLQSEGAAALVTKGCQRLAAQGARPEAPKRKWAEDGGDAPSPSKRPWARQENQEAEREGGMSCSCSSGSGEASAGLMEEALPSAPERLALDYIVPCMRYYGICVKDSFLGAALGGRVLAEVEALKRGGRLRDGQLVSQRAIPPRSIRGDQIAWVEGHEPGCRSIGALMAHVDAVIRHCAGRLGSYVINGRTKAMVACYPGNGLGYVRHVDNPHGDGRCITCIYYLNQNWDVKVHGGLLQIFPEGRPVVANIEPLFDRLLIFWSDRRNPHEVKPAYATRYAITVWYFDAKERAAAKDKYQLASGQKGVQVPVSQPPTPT

COc1ccc(Oc2ccc3c(O)c(C(=O)NC(C)(C)CC(=O)O)nc(C#N)c3c2)cc1
Ratio IC50 [1]: 40

N#Cc1nc(C(=O)NCCC(=O)O)c(O)c2ccc(Oc3ccccc3)cc12
Ratio IC50 [1]: 5

O=C(O)CNC(=O)c1ncc(-c2cccc(F)c2)cc1O
IC50 [2]: 13.7 µM

O=C(O)CNC(=O)c1ncc(C#CCOc2ccc(Cl)cc2)cc1O [DDO-3055]
IC50 [2]: 13.7 µM

CC(C)(C)NC(=O)c1ccc(-n2[nH]cc(-c3cccnc3)c2=O)nc1
IC50 [3]: 0.91 µM

Cc1nc(C(=O)NCC(=O)O)c(O)c2ccc(Oc3ccccc3)cc12 [ROXADUSTAT]
half-life [4]: 12 h
Activity [5]: >=1 g/dl
Activity [6]: 115 mU/ml

O=C(O)CNC(=O)c1ncc(-c2cccc(Cl)c2)cc1O
Activity [7]: 32.4 mU/ml

O=c1c(-n2ccnn2)c[nH]n1-c1cc(N2CCOCC2)ncn1 [MOLIDUSTAT]
bioavailability [8]: 61%
bioavailability [9]: 34%
bioavailability [10]: 71%
Activity [11]: 3%
Activity [12]: 17%

CCN1CCN(C(=O)c2ccc(-n3ncc(-c4ccc(C#N)cc4C)c3O)nc2)CC1
Activity [13]: 51%
Activity [14]: 56%
pIC50 [15]: 8
pEC50 [16]: 6.25
Activity [17]: 50%
Activity [18]: 59%
fold change (FC) [19]: 2

O=C(O)CCC(=O)NNC(=O)c1cc2ccccc2cn1
IC50 [20]: 18.4 µM

O=C(Cc1ccc(-c2ccccc2)cc1)Nc1cnc(-n2cccn2)nc1O
IC50 [21]: 0.0007 µM

O=C(O)CCNC(=O)c1ncc(C(=O)NC(c2ccccc2)c2ccccc2)c(O)n1
IC50 [21]: < 0.02 µM

COc1ccc(-n2c(=S)[nH]c3cc(C(=O)NCc4ccc(Cl)cc4)sc3c2=O)nc1OC
IC50 [22]: 0.001 to 0.1 µM

COc1ccc(-n2c(=O)[nH]c3cc(C(=O)NCc4ccc(Cl)cc4)sc3c2=O)nc1OC
IC50 [22]: 0.001 to 0.1 µM

O=C(O)c1cnn(-c2nc(O)c3c(cnn3C(c3ccc(Cl)cc3)c3ccc(Cl)cc3)n2)c1
fold change (FC) [23]: 40
Ratio IC50 [24]: 130

O=C(O)CNC(=O)c1c(O)n(C2CCCCC2)c(=O)n(C2CCCCC2)c1=O
IC50 [25]: 0.0035 µM
fold change (FC) [26]: 11.2
IC50 [27]: 0.0055 µM
Activity [28]: 500 mIU/ml

O=C(NCc1ccc2c(c1)CCO2)c1ccc(-c2ncn[nH]2)nc1
IC50 [29]: 0.061 µM

CC(=O)Nc1c[nH]n(-c2ccc(C(=O)NCc3cccc(-c4ccccc4)c3)cc2)c1=O
fold change (FC) [30]: 40

O=c1c(-c2cccnc2)c[nH]n1-c1ccccn1
EC50 [31]: 4.9 µM
IC50 [3]: 0.43 µM

CC(CC(=O)O)NC(=O)c1nc(C#N)c2cc(Oc3ccccc3)ccc2c1O (stereo not given)
Ratio IC50 [1]: 40

COc1ccc(C(NC(=O)c2cnc(-c3cccnn3)nc2O)c2ccc([PH](=O)O)cc2)cc1 (stereo not given)
IC50 [21]: < 0.01 µM

COCC1(CNC(=O)c2ccc(-n3ncc(-c4ccnc(OC)c4)c3O)nc2)CCCC1
pIC50 [15]: 8.4
pEC50 [16]: 6.45
